Tests used:
[1] = tested on: ADP-inducing platelet aggregation; assay: Rabbit exo-vivo test, ADP-inducing platelet aggregation after oral administration (Experiment 2); format: in vivo, Japanese white rabbits
Experimental: Japanese white rabbits weighing 3.0-4.0 kg were fasted for 18 hours. A drug suspension in 2% gum arabic aqueous solution was orally given to the animal in a definite dose. Blood was collected 1 and 4 hours after. PRP was prepared in a manner similar to Experiment 1 and ADP-inducing platelet aggregation function was determined. An inhibition rate was calculated based on an aggregation rate of ADP prior to administration of the compound.

[2] = tested on: thrombocytopenia in mice (collagen-induced, platelet count); assay: Activity of preventing thrombocytopenia in mice, collagen i.v. (Experiment 3); format: in vivo, male ddY mice; conditions: Mus musculus, 3.0 mg/kg oral, 1 hour before collagen 0.5 mg/kg i.v., * p = 5%, ** p = 1%, *** p = 0.1%, read-out: Average Inhibition Rate (platelet count; normal mouse 100, control mouse 0)
Experimental: Activity of preventing thrombocytopenia in mice:
Collagen (Holm Co.) diluted with physiological saline was intravenously given through the vein to male ddY mice of 6 weeks old, weighing 28-31 g, which had been fasted for 4-5 hours, in a dose of 0.5 mg/kg. Five minutes after, blood was collected from the lower thigh vein under pentobarbital anesthesia through a plastic syringe treated with heparin containing 3.8% sodium citrate. The drug was orally given an hour before the collagen administration. The platelet count was measured with Sysmex E-4000. The inhibition activity is shown in terms of percentage of the platelet count when the platelet count of normal mouse was made 100 and the platelet count of control mouse was made 0.

[3] = tested on: Platelet aggregation (ADP, rabbit platelet rich plasma); assay: Platelet aggregation inhibition in rabbit PRP, ADP-induced, Born's turbidimetry (Experiment 1); format: cell-based; conditions: Oryctolagus cuniculus, 0.05 h, ADP 2 to 4 μM, 3 min incubation, read-out: Aggregation Inhibition Rate; for inhibition at 1 µg/mL: 10^-6 g/ml; for inhibition at 0.1 µg/mL: 10^-7 g/ml
Experimental: Blood was collected from the ear vein of rabbit, together with 1/10 volume sodium citrate. Centrifugation at 1,200 rpm for 10 minutes gave the supernatant which was made platelet rich plasma (PRP). The blood was further centrifuged at 3,000 rpm for 10 minutes to give platelet poor plasma (PPP). The platelet count of PRP was adjusted to 300,000/μl with PPP, which was provided for the test. Platelet aggregation was determined with aggregometer (HEMATRACERVI, Niko Bioscience Co.) based on Born's turbidimetry. That is, 200 μl of PRP was charged in a cell and 1 μl of a drug solution dissolved in dimethylsulfoxide was added thereto. After incubation for 3 minutes, ADP was added in a concentration of 2 to 4 μM to cause aggregation. Change in transmittance in the cell was then monitored. The results are shown in Table 2, in terms of aggregation inhibition rate which was determined by comparing a transmittance of control with that obtained at the maximum aggregation on an aggregation curve when the transmittance of PRP was made 0% and the transmittance of PPP was made 100%.

| SMILES | inhibition in vivo at 3 mg/kg [2] [%] | inhibition at 1 µg/mL [3] [%] | inhibition at 0.1 µg/mL [3] [%] | also measured |
| --- | --- | --- | --- | --- |
| COc1ccc(CNc2c(OCCCc3ccccc3)n[nH]c(=O)c2Br)cc1OC [C, reference compound] | 27.4 |  |  | Average Inhibition Rate ([1]; 3 mg/kg oral, 1 Hour): 20%; Average Inhibition Rate ([1]; 3 mg/kg oral, 4 Hours): 23%; Average Inhibition Rate ([1]; 30 mg/kg oral, 1 Hour): 36%; Average Inhibition Rate ([1]; 30 mg/kg oral, 4 Hours): 35% |
| O=c1[nH]nc(OCCCc2ccccc2)c(NCc2cccnc2)c1Br [Comparative Compound A, reference compound] |  | 100 | 84 |  |
| COc1ccc(CNc2c(OCCOc3ccccc3)n[nH]c(=O)c2Br)cc1OC [Comparative Compound B, reference compound] |  |  | 79 |  |
| O=c1[nH]nc(OCCSc2ccccc2)c(NCc2cccnc2)c1Cl [Compound 1] |  | 100 | 37 |  |
| O=c1[nH]nc(OCCCSc2ccccc2)c(NCc2cccnc2)c1Cl [Compound 2, 4-chloro-6-[3-(phenylthio)propyloxy]-5-(3-picolylamino)-3(2H)-pyridazinone] |  | 100 | 27 |  |
| COc1ccc(CNc2c(OCCSc3ccccc3)n[nH]c(=O)c2Cl)cc1OC [Compound 4] |  | 100 | 100 |  |
| COc1ccc(CNc2c(OCCSc3ccccc3)n[nH]c(=O)c2Br)cc1OC [Compound 6, 4-bromo-5-(3,4-dimethoxyphenylmethyl-amino)-6-[2-(phenylthio)ethyloxy]-3(2H)-pyridazinone] | 33 | 100 | 100 |  |
| COc1ccc(CNc2c(OCCCSc3ccccc3)n[nH]c(=O)c2Br)cc1OC [Compound 7] |  | 100 | 74 |  |
| COc1ccc(CNc2c(OCCS(=O)(=O)c3ccccc3)n[nH]c(=O)c2Br)cc1OC [Compound 10, 4-bromo-5-(3,4-dimethoxyphenylmethylamino)-6-[2-(phenylsulfonyl)ethyloxy]-3(2H)-pyridazinone] |  |  | 100 |  |
| COc1ccc(CNc2c(OCCCS(=O)(=O)c3ccccc3)n[nH]c(=O)c2Br)cc1OC [Compound 11] |  |  | 71 |  |
| COc1ccc(CNc2c(OCCSc3ccccc3)nn(CN3CCOCC3)c(=O)c2Br)cc1OC [Compound 12] | 43 |  | 100 |  |
| COc1ccc(CNc2c(OCC[S+]([O-])c3ccccc3)nn(CN3CCOCC3)c(=O)c2Br)cc1OC (centres unmarked) [Compound 13] |  |  | 100 |  |
| COc1ccc(CNc2c(OCCSc3ccc(F)cc3)n[nH]c(=O)c2Br)cc1OC [Compound 14, 4-bromo-5-(3,4-dimethoxyphenylmethylamino)-6-[2-(4fluorophenylthio)ethyloxy]-3(2H)-pyridazinone] | 23.3 |  | 100 |  |
| COc1ccc(CNc2c(OCC[S+]([O-])c3ccc(F)cc3)n[nH]c(=O)c2Br)cc1OC (centres unmarked) [Compound 15, 4-bromo-5-(3,4-dimethoxyphenylmethyl-amino)-6-[2-(4-fluorophenylsulfinyl)ethyloxy]-3(2H)-pyridazinone] | 52.4 |  | 100 |  |
| COc1ccc(CNc2c(OCCS(=O)(=O)c3ccc(F)cc3)n[nH]c(=O)c2Br)cc1OC [Compound 16, 4-bromo-6-[2-(4-fluorophenylsulfonyl)ethyloxy]-5-(3,4-dimethoxyphenylmethylamino)-3(2H)-pyridazinone] | 35.7 |  | 100 |  |
| COc1ccc(CNc2c(OCCSc3ccc(F)cc3)nn(CN3CCN(C)CC3)c(=O)c2Br)cc1OC [Compound 17, 4-bromo-5-(3,4-dimethoxyphenylmethylamino)-6-[2-(4-fluorophenylthio)ethyloxy]-2-(4-methylpiperazinlylmethyl)-3(2H)-pyridazinone] |  |  | 100 |  |
| COc1ccc(CNc2c(OCCSc3ccccc3Cl)n[nH]c(=O)c2Br)cc1OC [Compound 18] | 30.1 |  | 100 |  |
| COc1ccc(CNc2c(OCC[S+]([O-])c3ccccc3Cl)n[nH]c(=O)c2Br)cc1OC (centres unmarked) [Compound 19, 4-bromo-6-[2-(2-chlorophenylsulfinyl)ethyloxy]-5-(3,4-dimethoxyphenylmethylamino)-3(2H)-pyridazinone] | 33.8 |  | 100 |  |

| SMILES | inhibition in vivo at 3 mg/kg [2] [%] | inhibition at 1 µg/mL [3] [%] | inhibition at 0.1 µg/mL [3] [%] | also measured |
| --- | --- | --- | --- | --- |
| COc1ccc(CNc2c(OCCSc3cccc(Cl)c3)n[nH]c(=O)c2Br)cc1OC [Compound 20] |  | 100 | 90 |  |
| O=c1[nH]nc(OCCSc2ccc(Cl)cc2)c(NCc2cccnc2)c1Cl [Compound 23] |  | 100 | 100 |  |
| COc1ccc(CNc2c(OCCSc3ccc(Cl)cc3)n[nH]c(=O)c2Cl)cc1OC [Compound 24] |  | 100 | 100 |  |
| Cc1ccc(SCCOc2n[nH]c(=O)c(Cl)c2NCc2cccnc2)cc1 [Compound 27] |  | 100 | 80 |  |
| COc1ccc(CNc2c(OCCSc3ccc(C)cc3)n[nH]c(=O)c2Cl)cc1OC [Compound 28] |  | 100 | 100 |  |
| COc1ccc(CNc2c(OCC[S+]([O-])c3ccc(C)cc3)n[nH]c(=O)c2Cl)cc1OC (centres unmarked) [Compound 29] |  | 100 | 100 |  |
| COc1ccc(CNc2c(OCC[S+]([O-])c3ccc(C)cc3)n[nH]c(=O)c2Br)cc1OC (centres unmarked) [Compound 30, 4-bromo-5-(3,4-dimethoxyphenylmethylamino)-6-[2-(p-tolylsulfinyl)ethyloxy]-3(2H)-pyridazinone] |  | 100 | 100 |  |
| COc1ccc(CNc2c(OCCSc3ccc(C)cc3C)n[nH]c(=O)c2Br)cc1OC [Compound 31, 4-bromo-5-(3,4-dimethoxyphenylmethylamino)-6-[2-(2,4-dimethylphenylthio)ethyloxy]-3(2H)-pyridazinone] |  |  | 100 |  |
| COc1ccc(CNc2c(OCC[S+]([O-])c3ccc(C)cc3C)n[nH]c(=O)c2Br)cc1OC (centres unmarked) [Compound 32, 4-bromo-5-(3,4-dimethoxyphenylmethyl-amino)-6-[2-(2,4-dimethylphenylsulfinyl)ethyloxy]-3(2H)pyridazinone] |  |  | 100 |  |
| COc1ccc(CNc2c(OCCS(=O)(=O)c3ccc(C)cc3C)n[nH]c(=O)c2Br)cc1OC [Compound 33, 4-bromo-5-(3,4-dimethoxyphenylmethyl-amino)-6-[2-(2,4-dimethylphenylsulfonyl)ethyloxy]-3(2H)-pyridazinone] |  |  | 100 |  |
| COc1ccc(SCCOc2n[nH]c(=O)c(Cl)c2NCc2cccnc2)cc1 [Compound 34] |  | 100 | 64 |  |
| COc1ccc(SCCOc2n[nH]c(=O)c(Cl)c2NCc2ccc(OC)c(OC)c2)cc1 [Compound 35] |  | 100 | 83 |  |
| COc1ccc(S(=O)(=O)CCOc2n[nH]c(=O)c(Cl)c2NCc2ccc(OC)c(OC)c2)cc1 [Compound 36] |  | 100 | 83 |  |
| COc1ccc(CNc2c(OCCSc3ccc(C#N)cc3)n[nH]c(=O)c2Br)cc1OC [Compound 37] | 35.4 | 100 | 100 |  |
| COc1ccc(CNc2c(OCC[S+]([O-])c3ccc(C#N)cc3)n[nH]c(=O)c2Br)cc1OC (centres unmarked) [Compound 38] | 21.8 |  | 100 |  |
| COc1ccc(CNc2c(OCCSc3ccc([N+](=O)[O-])cc3)n[nH]c(=O)c2Br)cc1OC [Compound 39, 4-bromo-5-(3,4-dimethoxyphenylmethylamino)-6-[2-(4-nitrophenylthio)ethyloxy]-3(2H)-pyridazinone] | 30.4 | 100 | 93 |  |
| COc1ccc(CNc2c(OCC[S+]([O-])c3ccc([N+](=O)[O-])cc3)n[nH]c(=O)c2Br)cc1OC (centres unmarked) [Compound 40] | 40.8 |  |  |  |
| CCN(CC)C(=O)c1ccc(SCCOc2n[nH]c(=O)c(Br)c2NCc2ccc(OC)c(OC)c2)cc1 [Compound 41] |  |  | 100 |  |

— patent US5604226A, “Pyridazinone derivatives, processes for production thereof and use thereof” (Nihon Nohyaku Co., Ltd., priority 1993, dated 1997)
